From ChEMBL document CHEMBL1909046, “DrugMatrix in vitro pharmacology data”

Assays:
[1] = target: T1, Alpha-1B adrenergic receptor (Rattus norvegicus, UniProt P15823); assay: DRUGMATRIX: Alpha-1B adrenergic receptor radioligand binding (ligand: prazosin); type: cell membranes, Wistar, Liver, Membrane; conditions: Not Active = under 50% inhibition at 10 µM
T1 sequence (P15823 whole entry): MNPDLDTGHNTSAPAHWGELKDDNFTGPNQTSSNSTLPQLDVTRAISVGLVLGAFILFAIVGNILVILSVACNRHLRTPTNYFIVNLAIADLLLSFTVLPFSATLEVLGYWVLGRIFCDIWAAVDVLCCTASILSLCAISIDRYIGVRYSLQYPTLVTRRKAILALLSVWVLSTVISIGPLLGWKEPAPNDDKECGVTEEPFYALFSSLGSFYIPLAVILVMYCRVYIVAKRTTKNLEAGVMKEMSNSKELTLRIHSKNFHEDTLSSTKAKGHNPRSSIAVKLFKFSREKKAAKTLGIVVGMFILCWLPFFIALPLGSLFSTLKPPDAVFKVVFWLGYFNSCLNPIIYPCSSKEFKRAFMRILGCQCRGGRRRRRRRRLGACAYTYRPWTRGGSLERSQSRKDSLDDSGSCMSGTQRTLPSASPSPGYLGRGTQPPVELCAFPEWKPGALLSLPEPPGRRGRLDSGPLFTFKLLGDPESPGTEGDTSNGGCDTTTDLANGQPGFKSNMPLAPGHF

[2] = target: T2, Alpha-2A adrenergic receptor (Homo sapiens, UniProt P08913); type: cell membranes, Sf9, Membrane; also: in other assays of this panel Not Active means under 50% inhibition at 10 µM
T2 sequence (P08913 whole entry): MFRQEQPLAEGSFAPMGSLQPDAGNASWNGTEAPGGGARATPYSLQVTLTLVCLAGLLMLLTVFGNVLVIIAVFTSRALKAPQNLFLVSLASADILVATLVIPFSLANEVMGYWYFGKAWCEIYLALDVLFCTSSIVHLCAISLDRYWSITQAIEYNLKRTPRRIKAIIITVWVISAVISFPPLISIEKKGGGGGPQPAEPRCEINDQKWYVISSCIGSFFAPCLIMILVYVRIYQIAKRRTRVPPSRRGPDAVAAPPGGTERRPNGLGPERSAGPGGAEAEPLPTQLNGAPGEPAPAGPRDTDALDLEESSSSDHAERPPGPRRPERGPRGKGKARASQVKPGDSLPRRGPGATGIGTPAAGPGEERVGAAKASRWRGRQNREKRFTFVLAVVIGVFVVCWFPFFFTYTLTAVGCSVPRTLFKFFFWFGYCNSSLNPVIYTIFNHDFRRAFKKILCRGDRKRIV

[3] = target: T3, Cholecystokinin receptor type A (Homo sapiens, UniProt P32238); type: cell membranes, Membrane; conditions: 1321-n1; also: in other assays of this panel Not Active means under 50% inhibition at 10 µM
T3 sequence (P32238 whole entry): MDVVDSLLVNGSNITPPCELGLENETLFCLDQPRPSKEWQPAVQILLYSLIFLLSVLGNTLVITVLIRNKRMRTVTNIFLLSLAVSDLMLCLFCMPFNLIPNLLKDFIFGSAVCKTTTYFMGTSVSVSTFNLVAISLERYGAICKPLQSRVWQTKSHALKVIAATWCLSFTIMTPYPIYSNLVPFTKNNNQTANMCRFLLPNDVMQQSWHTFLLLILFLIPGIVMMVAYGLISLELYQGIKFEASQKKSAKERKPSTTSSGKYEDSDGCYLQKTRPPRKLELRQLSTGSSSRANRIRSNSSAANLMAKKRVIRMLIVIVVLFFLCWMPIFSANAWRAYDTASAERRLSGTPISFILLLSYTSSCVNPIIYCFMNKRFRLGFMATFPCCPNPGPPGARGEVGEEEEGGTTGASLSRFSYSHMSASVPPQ

Calcitonin receptor = target: T4, Calcitonin receptor (Homo sapiens, UniProt P30988); type: cell membranes, Membrane; conditions: t47d; also: in other assays of this panel Not Active means under 50% inhibition at 10 µM
T4 sequence (P30988 whole entry): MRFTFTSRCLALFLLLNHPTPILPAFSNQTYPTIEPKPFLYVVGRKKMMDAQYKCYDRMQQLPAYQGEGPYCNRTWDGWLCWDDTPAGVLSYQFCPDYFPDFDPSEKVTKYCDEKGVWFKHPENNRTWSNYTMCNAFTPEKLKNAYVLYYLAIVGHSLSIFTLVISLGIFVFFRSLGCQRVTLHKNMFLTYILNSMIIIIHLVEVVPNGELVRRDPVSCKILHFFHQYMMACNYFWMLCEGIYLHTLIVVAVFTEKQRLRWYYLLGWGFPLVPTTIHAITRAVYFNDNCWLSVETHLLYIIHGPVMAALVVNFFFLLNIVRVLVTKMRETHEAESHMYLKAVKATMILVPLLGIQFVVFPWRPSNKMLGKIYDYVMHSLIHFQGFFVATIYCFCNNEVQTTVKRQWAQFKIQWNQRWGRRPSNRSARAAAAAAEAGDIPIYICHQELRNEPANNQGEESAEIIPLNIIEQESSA

[4] = DRUGMATRIX: GABAA, Flunitrazepam, Central radioligand binding (ligand: [3H] Flunitrazepam); type: cell membranes, Rattus norvegicus, Wistar, Brain, Membrane; conditions: Not Active = under 50% inhibition at 10 µM
Melanocortin receptor 4 = Melanocortin receptor 4 (Homo sapiens, UniProt P32245); type: cell membranes, HEK293, Membrane; conditions: hek293; also: in other assays of this panel Not Active means under 50% inhibition at 10 µM
Sequence of Melanocortin receptor 4 (P32245 whole entry): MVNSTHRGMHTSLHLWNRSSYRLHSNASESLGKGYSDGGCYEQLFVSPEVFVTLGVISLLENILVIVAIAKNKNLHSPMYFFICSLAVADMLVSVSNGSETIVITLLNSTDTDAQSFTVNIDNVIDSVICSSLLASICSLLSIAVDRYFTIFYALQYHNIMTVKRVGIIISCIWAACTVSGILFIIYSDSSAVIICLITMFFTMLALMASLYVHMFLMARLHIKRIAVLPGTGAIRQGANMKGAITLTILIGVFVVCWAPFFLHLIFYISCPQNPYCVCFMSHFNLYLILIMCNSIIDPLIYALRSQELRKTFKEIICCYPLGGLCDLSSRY

[5] = target: Protein phosphatase 3 catalytic subunit alpha (Homo sapiens, UniProt Q08209); design: species or system Escherichia coli

Compound | IC50 [1] | IC50 ([2]; sf9) | IC50 [3] | IC50 (Calcitonin receptor) | IC50 [4] | Ki [4] | IC50 (Melanocortin receptor 4) | IC50 [5] | IC50 ([1]; read-out: IC50) [nM] | Ki ([1]; read-out: Ki) [nM] | IC50 ([2]; read-out: IC50) [µM] | Ki ([2]; read-out: Ki) [nM] | Ki [1] | IC50 ([2]; sf9, read-out: IC50) [µM] | Ki [3] | Ki (Calcitonin receptor) | Ki (Melanocortin receptor 4) | Ki [5] | Ki ([2]; sf9)
COCCc1ccc(OCC(O)CNC(C)C)cc1 (stereo not given) [METOPROLOL] | Not Active | Not Active | Not Active | Not Active | Not Active | Not Active | Not Active | Not Active |  |  |  |  |  |  |  |  |  |  | 
CCn1cc(C(=O)O)c(=O)c2cc(F)c(N3CCNCC3)cc21 [NORFLOXACIN] | Not Active | Not Active | Not Active | Not Active | Not Active | Not Active | Not Active | Not Active |  |  |  |  |  |  |  |  |  |  | 
NC1=NC(=O)C(c2ccccc2)O1 (stereo not given) [PEMOLINE] | Not Active | Not Active | Not Active | Not Active | Not Active | Not Active | Not Active | Not Active |  |  |  |  |  |  |  |  |  |  | 
Nc1nc2c(ncn2CCC(CO)CO)c(=O)[nH]1 [PENCICLOVIR] | Not Active | Not Active | Not Active | Not Active | Not Active | Not Active | Not Active | Not Active |  |  |  |  |  |  |  |  |  |  | 
C=C(C)C1(O)OC(=O)C=C1OC (stereo not given) [PENICILLIC ACID] | Not Active | Not Active | Not Active | Not Active | Not Active | Not Active | Not Active | Not Active |  |  |  |  |  |  |  |  |  |  | 
CC1(C)S[C@@H]2[C@H](NC(=O)Cc3ccccc3)C(=O)N2[C@H]1C(=O)O [PENICILLIN G] | Not Active | Not Active | Not Active | Not Active | Not Active | Not Active | Not Active | Not Active |  |  |  |  |  |  |  |  |  |  | 
C1CCC(C(CC2CCCCN2)C2CCCCC2)CC1 (stereo not given) [PERHEXILINE] | Not Active | Not Active | Not Active | Not Active | Not Active | Not Active | Not Active | Not Active |  |  |  |  |  |  |  |  |  |  | 
CCOc1ccc(NC(C)=O)cc1 [PHENACETIN] | Not Active | Not Active | Not Active | Not Active | Not Active | Not Active | Not Active | Not Active |  |  |  |  |  |  |  |  |  |  | 
CNNCc1ccc(C(=O)NC(C)C)cc1 [PROCARBAZINE] | Not Active | Not Active | Not Active | Not Active | Not Active | Not Active | Not Active | Not Active |  |  |  |  |  |  |  |  |  |  | 
CN(C)CCCN1c2ccccc2Sc2ccccc21 [PROMAZINE] |  |  | Not Active | Not Active | Not Active | Not Active | Not Active | Not Active | 8.19 | 4.53 | 0.337 | 126 |  |  |  |  |  |  | 
CC(O)CO (stereo not given) [PROPYLENE GLYCOL] | Not Active | Not Active | Not Active | Not Active | Not Active | Not Active | Not Active | Not Active |  |  |  |  |  |  |  |  |  |  | 
CADMIUM ACETATE | Not Active |  | Not Active | Not Active | Not Active | Not Active | Not Active | Not Active |  |  |  |  | Not Active | 4.56 | Not Active | Not Active | Not Active | Not Active | 
LEAD (II) ACETATE | Not Active |  | Not Active | Not Active | Not Active | Not Active | Not Active | Not Active |  |  |  |  | Not Active | 3.6 | Not Active | Not Active | Not Active | Not Active | 
LIPOPOLYSACCHARIDE E. COLI O55:B5 | Not Active | Not Active | Not Active | Not Active | Not Active | Not Active | Not Active | Not Active |  |  |  |  | Not Active |  | Not Active | Not Active | Not Active | Not Active | Not Active
